Laboratory results: patent publication US20250170050A1, “Use of Nordic plant-based ingredients for supporting a healthy skin microbiome” (Lumene Oy, priority 2022, published 2025)

System: Cutibacterium acnes
Assay: In vitro growth of C. acnes by OD at 600 nm in kinetic for 49 hours, anaerobic
Assay type: cell-based
Conditions: oat xylitol alone
Procedure: In the present study, the effects of 4 compounds and 5 combinations were evaluated on the growth of two bacterial strains: Staphylococcus epidermidis (S. epidermidis) and Cutibacterium acnes (C. acnes). The bacterial strains were grown individually, and the growth of each bacterial strain was determined in presence of the compounds or combinations by optical density (OD) measurement at 600 nm in kinetic for 24 hours for S. epidermidis strain and for 49 hours for C. acnes strain to determine a bacterial growth curve. To determine the effect of the test compounds and combinations on the growth of bacteria, bacterial suspensions were transferred in a 96-well plate containing the compounds, the combinations or glucose tested at 0.1% and 1%. Bacterial cultures were incubated at 37° C. under agitation and under anaerobic condition for C. acnes strain. All experimental conditions were performed in n=3. Optical densities at 600 nm (OD600 nm) were then read in kinetic for 24 hours for S. epidermidis strain and 49 hours for C. acnes strain using a microplate spectrophotometer (EPOCH2, BioTek Instruments). Raw data were analysed using GraphPad PRISM software (growth curves).

OC[C@@H](O)[C@H](O)[C@@H](O)CO [Xylitol]
growth of C. acnes: inhibits
